Data taken from patent publication US7091040B1, “P450/acetaminophen genetically directed enzyme prodrug therapy (GDEPT)” (Innovata PLC, priority 1999, dated 2006).

Legend:
[1] = Bystander effect on viability of MDA-MB-361 cells co-cultured with H1A2 MZ cells in the presence of acetaminophen, trypan blue exclusion; type: cell-based, human; conditions: human; for viability at 4 mM: 4 mM acetaminophen 6 h; for viability at 0 h, 4 mM / viability at 6 h, 4 mM: 4 mM acetaminophen in PBS
Experimental: (§1) Tumour cells or V79 MZ cells (non transfected, parental cells) were co-cultured overnight with various mixtures of H1A2 MZ cells (as indicated in the Table), washed with PBS and incubated with 4 mM acetaminophen in PBS for 6 h at 37° C. the cells were then washed once with PBS and maintained for either 24 or 48 h in culture medium appropriate to each cell type, as detailed in the Methods section. At 0, 6, 24 or 48 h the cells were washed in PBS and viability of the mixed cell population determined by trypan blue exclusion. The data shown are mean values±SEM of 4 separate determinations. Statistical significance was determined at each time point by comparing viability measurements in the mixed cell populations with both the viability determined at 0 h and in the absence of H1A2 MZ cells in the mixture 2×2 contingency tables using the 2-tailed Chi-squared test with Yate's correction. Viability was determined in a total of 1500 cells at each time point. Levels of significance are indicated as **p<0.001; ***p<0.0001;
(§2) For cell viability experiments 200,000 cells per well were plated on 12 well plates (Beckton-Dickenson, Oxford, UK), using the medium and conditions required by the tumour cell line and allowed to adhere overnight. After this the cells were washed with PBS before the addition of acetaminophen in 0.1 ml PBS (concentrations of 0.1–20 mM acetaminophen were dissolved in PBS by sonication) and then maintained at 37° C. At the appropriate time points, cells were removed from the plates by trypsinisation and collected by centrifugation. Cell viability was measured as ability to exclude trypan blue. Cells were counted at ×100 magnification using an Improved Neubauer haemocytometer; all cell counts are the mean of duplicate determinations of five fields from duplicate experiments.
(§3) V79 MZ Chinese hamster cells were maintained in Dulbecco-Vogt's modified Eagle's Medium (DMEM) supplemented with 10% foetal calf serum 9FCS), 2 mM L-glutamine, penicillin (100 U/ml and streptomycin (100 μg/ml) (all tissue culture reagents were obtained from Gibco BRL, Paisley, UK). H1A2 MZ cells, which are V79 MZ cells transfected with the human CYP1A2 gene, were also maintained in supplemented DMEM with the addition of geneticin at a concentration of 4 mg/ml. SK-OV-3 cells were grown in DMEM supplemented with 15% FCS and 2 mM L-glutamine, without the addition of antibiotics. RPMI-1640 medium with 10% FCS, 2 mM L-glutamine, penicillin (100 U/ml) and streptomycin ([…]) was required by the HCT116 cells. These cell lines were maintained at 37° C. with 100% humidity and 5% CO2. […] At confluence cells were removed from tissue culture flasks by inubation with trypsin-EDTA for 5 min, diluted 1:3–1:6 in fresh medium and seeded onto fresh flasks. The tumour cell lines were obtained from the European Collection of Cell Cultures.

[2] = system: V79 MZ cells; test: Viability of V79 MZ cells, alone or co-cultured with H1A2 MZ cells (bystander effect), with acetaminophen, trypan blue exclusion; type: cell-based, Chinese hamster
Experimental: as §1, with “Table 1 represents the bystander effect on viability produced by incubating H1A2 MZ cells (stably transfected with human CYP1A2) with various cell-lines in the presence of acetaminophen. Tumour” for “Tumour”, “washed with PBS and incubated with 4 mM acetaminophen in PBS for 6 h at 37° C.” left out
(§4) FIG. 4 represents the bystander effect on viability produced by incubating stably transfected, acetaminophen-activating H1A2 MZ cells with non-transfected parental V79 MZ cells. […] The cells were then washed in PBS and the viability of the mixed cell population determined by trypan blue exclusion. The cultures comprised V79 MZ cells only (open squares), and V79 MZ cells mixed with 5% (solid squares), 10% (open triangles), 25% (open circles) and 50% (solid circles) H1A2 MZ cells. In addition, the viability of H1A2 MZ cells in the presence (crosses) and absence (solid triangles) of acetaminophen is shown.

[3] = as above; type: cell-based, Chinese hamster; conditions: Chinese hamster; for viability at 4 mM: 4 mM acetaminophen 6 h, then 24 h in culture medium; for viability at 0 h, 4 mM / viability at 6 h, 4 mM: 4 mM acetaminophen in PBS
Experimental: as §1, with “Table 1 represents the bystander effect on viability produced by incubating H1A2 MZ cells (stably transfected with human CYP1A2) with various cell-lines in the presence of acetaminophen. Tumour” for “Tumour”, “washed with PBS and incubated with 4 mM acetaminophen in PBS for 6 h at 37° C.” left out
as §4

[4] = system: HCT116 cells; test: Bystander effect on viability of HCT116 cells co-cultured with H1A2 MZ cells in the presence of acetaminophen, trypan blue exclusion; type: cell-based, human; conditions: for viability at 4000 µM: Homo sapiens
Experimental: as §1, §2, §3

[5] = system: H1A2 MZ cells; test: Viability of H1A2 MZ cells (stably transfected with human CYP1A2) incubated with acetaminophen, trypan blue exclusion; conditions: H1A2 MZ cells; 0.1 mM acetaminophen; 6 h
Experimental: as §2, §3

[6] = as above; conditions: Chinese hamster
Experimental: as §2, §3

[7] = MDA-MB-361 cells + 10% H1A2 MZ cells
[8] = MDA-MB-361 cells + 25% H1A2 MZ cells
[9] = MDA-MB-361 cells + 50% H1A2 MZ cells
[10] = V79 MZ cells + 5% H1A2 MZ cells
[11] = V79 MZ cells + 10% H1A2 MZ cells
[12] = V79 MZ cells + 25% H1A2 MZ cells
[13] = V79 MZ cells + 50% H1A2 MZ cells

## CC(=O)Nc1ccc(O)cc1 [acetaminophen]
[1]; MDA-MB-361 cells + 5% H1A2 MZ cells, then 24 h in culture medium
  viability at 4 mM: 84 ± 7%
[1]; MDA-MB-361 cells + 5% H1A2 MZ cells, then 48 h in culture medium
  viability at 4 mM: 92 ± 4%
[1]; MDA-MB-361 cells + 10% H1A2 MZ cells, then 24 h in culture medium
  viability at 4 mM: 81 ± 9%
[1]; MDA-MB-361 cells + 10% H1A2 MZ cells, then 48 h in culture medium
  viability at 4 mM: 94 ± 7%
[1]; [7]
  viability at 0 h, 4 mM: 96 ± 3%
  viability at 6 h, 4 mM: 74 ± 7%
[1]; MDA-MB-361 cells + 25% H1A2 MZ cells, then 24 h in culture medium
  viability at 4 mM: 78 ± 9%
[1]; MDA-MB-361 cells + 25% H1A2 MZ cells, then 48 h in culture medium
  viability at 4 mM: 91 ± 6%
[1]; [8]
  viability at 0 h, 4 mM: 97 ± 1%
  viability at 6 h, 4 mM: 70 ± 11%
[1]; MDA-MB-361 cells + 50% H1A2 MZ cells, then 48 h in culture medium
  viability at 4 mM: 0%
[1]; [9]
  viability at 0 h, 4 mM: 98 ± 3%
  viability at 6 h, 4 mM: 42 ± 4%
[2]; V79 MZ cells + 5% H1A2 MZ cells, 4 mM acetaminophen 6 h, then 24 h in culture medium
  Viability (%): zero
[2]; V79 MZ cells, 0% H1A2 MZ cells, 4 mM acetaminophen in PBS, 6 h
  Viability (%): no decline in cell viability
[2]; V79 MZ cells, which lack CYP1A2, acetaminophen 0.1–20 mM, 6 h
  cell viability: no loss of cell viability
[3]; [10]
  viability at 4 mM: 0%
  viability at 0 h, 4 mM: 98 ± 1%
  viability at 6 h, 4 mM: 52%
[3]; [11]
  viability at 4 mM: 0%
  viability at 0 h, 4 mM: 98 ± 1%
  viability at 6 h, 4 mM: 39 ± 6%
[3]; [12]
  viability at 4 mM: 0%
  viability at 0 h, 4 mM: 97 ± 2%
  viability at 6 h, 4 mM: 20 ± 4%
[3]; [13]
  viability at 4 mM: 0%
  viability at 0 h, 4 mM: 96 ± 3%
  viability at 6 h, 4 mM: 15 ± 7%
[3]; V79 MZ cells, 0% H1A2 MZ cells
  viability at 4 mM: 98 ± 1%
  viability at 0 h, 4 mM: 99 ± 1%
  viability at 6 h, 4 mM: 94 ± 7%
[4]; HCT116 cells + 5% H1A2 MZ cells, 4 mM acetaminophen 6 h, then 24 h in culture medium
  Viability (%): zero
[4]; HCT116 cells incubated with 5 and 10% H1A2 MZ cells, 4 mM acetaminophen, 6 h
  susceptibility to cytotoxicity produced by the activation of acetaminophen: disproportionate decrease in viability
[4]; HCT-116, 0 h, HCT116 cells + 5% H1A2 MZ cells, 4 mM acetaminophen in PBS, 0 h
  viability at 4000 µM: 98 ± 1%
[4]; HCT-116, 0 h, HCT116 cells + 10% H1A2 MZ cells, 4 mM acetaminophen in PBS, 0 h
  viability at 4000 µM: 98 ± 1%
[4]; HCT-116, 0 h, HCT116 cells + 25% H1A2 MZ cells, 4 mM acetaminophen in PBS, 0 h
  viability at 4000 µM: 97 ± 1%
[4]; HCT-116, 0 h, HCT116 cells + 50% H1A2 MZ cells, 4 mM acetaminophen in PBS, 0 h
  viability at 4000 µM: 98 ± 1%
[4]; HCT-116, 0 h, HCT116 cells, 0% H1A2 MZ cells, 4 mM acetaminophen in PBS, 0 h
  viability at 4000 µM: 96 ± 1%
[4]; HCT-116, 6 h, HCT116 cells + 5% H1A2 MZ cells, 4 mM acetaminophen in PBS, 6 h
  viability at 4000 µM: 69 ± 9%
[4]; HCT-116, 6 h, HCT116 cells + 10% H1A2 MZ cells, 4 mM acetaminophen in PBS, 6 h
  viability at 4000 µM: 60 ± 6%
[4]; HCT-116, 6 h, HCT116 cells + 25% H1A2 MZ cells, 4 mM acetaminophen in PBS, 6 h
  viability at 4000 µM: 56 ± 4%
[4]; HCT-116, 6 h, HCT116 cells + 50% H1A2 MZ cells, 4 mM acetaminophen in PBS, 6 h
  viability at 4000 µM: 42 ± 6%
[4]; HCT-116, 6 h, HCT116 cells, 0% H1A2 MZ cells, 4 mM acetaminophen in PBS, 6 h
  viability at 4000 µM: 96 ± 5%
[4]; HCT-116, HCT116 cells + 5% H1A2 MZ cells, 4 mM acetaminophen 6 h, then 24 h in culture medium
  viability at 4000 µM: 0%
[4]; HCT-116, HCT116 cells + 10% H1A2 MZ cells, 4 mM acetaminophen 6 h, then 24 h in culture medium
  viability at 4000 µM: 0%
[4]; HCT-116, HCT116 cells + 25% H1A2 MZ cells, 4 mM acetaminophen 6 h, then 24 h in culture medium
  viability at 4000 µM: 0%
[4]; HCT-116, HCT116 cells + 50% H1A2 MZ cells, 4 mM acetaminophen 6 h, then 24 h in culture medium
  viability at 4000 µM: 0%
[4]; HCT-116, HCT116 cells, 0% H1A2 MZ cells, 4 mM acetaminophen 6 h, then 24 h in culture medium
  viability at 4000 µM: 96 ± 2%
[5]
  cytotoxicity: No cytotoxicity
[6]
  viability at 6 h, 1 mM: 62%
  viability at 6 h, 4 mM: 8%
